Assay results taken from patent publication US11202787B2, “Use of ACTH in assessment and prophylactic treatment of hypokalemia associated with glucocorticoid receptor modulator treatment of Cushing's syndrome patients” (Corcept Therapeutics, Inc., priority 2018, dated 2021).
Where two headings read alike, the source gives them in different places.

Experiments:
[1] = tested on: Cushing's syndrome patients; details: in vivo
Description: The risk of experiencing at least one episode of hypokalemia (potassium level <3.5 mEq/L) after 7 to 14 Days of exposure to KORLYM (mifepristone) was evaluated using stepwise multivariable logistic regression and single-variable logistic regression models. The following independent factors were evaluated for potential association with hypokalemia based on the biology of the disease: total cortisol at Day 1, ACTH at Day 1, and potassium level at Day 1.
The risk of experiencing at least one episode of hypokalemia (potassium level <3.5 mmol/L) after 28 Days of exposure to KORLYM was evaluated using stepwise multivariable logistic regression and single-variable logistic regression models. The following independent factors were evaluated for potential association with hypokalemia based on the biology of the disease: total cortisol at Day 1 and Day 14 (cort_01 and cort_14), ACTH at Day 1 and Day 14 (ACTH_01 and ACTH_14), and potassium levels at Day 1 and Day 14 (K_01 and K_14).
Patients were defined to have severe/recurrent hypokalemia for this analysis if they had at least one value of potassium of 2.5 mmol/L or lower, or if they had recurrent hypokalemia (hypokalemia occurring during multiple visits after Day 14 visit).
(§1) The Cushing's syndrome study reported herein was conducted in accordance with the Declaration of Helsinki and Good Clinical Practice (GCP) according to International Conference on Harmonization (ICH) guidelines.
(§2) Dosing Schedule Dosing was started with 300 mg of mifepristone once per day for 14 days. After 14 days, if no clinical improvement was seen but the drug was well tolerated, the dose of mifepristone was increased to 600 mg once per day. After 4 weeks of dosing at 600 mg once per day, if no clinical improvement was seen but the drug was well tolerated, the dose was increased to 900 mg once per day. Dose escalation was based on weight with the maximum dose no higher than 20 mg/kg/day. […] After 4 weeks of dosing at 900 mg once per day, if no clinical improvement was seen but the drug was well tolerated, the dose was increased to 1200 mg once per day. Study duration was 24 weeks.
Serum electrolytes, including potassium, were measured regularly throughout the study period.
Extensive modeling of low potassium levels among the N=47 subjects was performed to determine the best predictors of low potassium after start of mifepristone. The modeling was based on logistic regressions where the endpoint was categorical Low vs High Potassium levels (Non-Hypokalemic Potassium >3.5 mmol/L vs Hypokalemic Potassium ≤3.5 mmol/L).
(§3) Potassium levels were obtained on every subject at either screening or the pre-drug administration baseline visit, and then also at every scheduled post-baseline visit. Potassium levels post-baseline were therefore obtained as early as day 7 and through day 210 (week 30 was the last visit and was the 6 week follow-up visit). ACTH, and cortisol were measured at six visits (week 2 (day 14), week 6 (day 42), week 10 (day 70), week 16 (day 112), and week 24 (day 168) week 6 follow-up (day 210)).

[2] = tested on: cortisol; test: Total serum cortisol during mifepristone treatment of Cushing's syndrome patients; assay type: in vivo, human; details: for Total Serum Cortisol Visit Values: Mean ± SD
Text: The term “measuring the level,” in the context of cortisol, ACTH, mifepristone, or other compounds, refers to determining, detecting, or quantitating the amount, level, or concentration of, for example, cortisol, ACTH, mifepristone, or other compound in a sample obtained from a subject. Plasma or serum samples are often used for measuring ACTH or cortisol level.
The types of samples that are suitable for cortisol determination can be serum, plasma, saliva, urine, or any other biological fluid taken from a subject. In preferred embodiments, the sample is a serum sample, or is a plasma sample. The level of cortisol can be measured using various methods, including but not limited to, immunoassays, e.g., competitive immunoassay, radioimmunoassay (MA), immunofluorometric enzyme assay, and ELISA; competitive protein-binding assays; liquid chromatography (e.g., HPLC); and mass spectrometry, e.g., high-performance liquid chromatography/triple quadrupole-mass spectrometry (LC-MS/MS). In preferred embodiments, cortisol levels are measured using LC-MS/MS, such as performed by Quest Diagnostics (Secaucus, N.J. 07094).
as §1, §2, §3

[3] = tested on: healthy volunteers; test: Previous clinical studies in healthy volunteers: adverse events; assay type: in vivo, human
Text: Hypokalemia and rash appear to be more common in subjects receiving mifepristone than in the control groups.

[4] = tested on: Cushing's syndrome patients; details: cited from earlier work

- developed hypokalemia on or after Day 28 ([1]; both, human): 6.7%
- developed severe/recurrent hypokalemia on or after Day 28 ([1]; both, human): 6.7%
- subjects with a Potassium value ≤3.5 mmol/L at any of the six visits ([1]; both, human): 21 subjects
- subjects with a Potassium value ≤3.5 mmol/L at any post-baseline visit ([1]; both, human): 23 subjects
- Number with Hypokalemia (%) (Potassium ≤ 3.4 mEq/L) ([1]; both, human, 6 week): 7 (14%) Number (%)
- Number with Hypokalemia (%) (Potassium ≤ 3.4 mEq/L) ([1]; both, human, 8 week): 4 (8%) Number (%)
- Number with Hypokalemia (%) (Potassium ≤ 3.4 mEq/L) ([1]; both, human, 10 week): 4 (8%) Number (%)
- Number with Hypokalemia (%) (Potassium ≤ 3.4 mEq/L) ([1]; both, human, 12 week): 3 (6%) Number (%)
- Number with Severe Hypokalemia (%) (Potassium ≤ 2.5 mEq/L) ([1]; both, human, 12 week): 1 (2%) Number (%)
- Number with Hypokalemia (%) (Potassium ≤ 3.4 mEq/L) ([1]; both, human, 16 week): 5 (10%) Number (%)
- Number with Severe Hypokalemia (%) (Potassium ≤ 2.5 mEq/L) ([1]; both, human, 16 week): 1 (2%) Number (%)
- Number with Hypokalemia (%) (Potassium ≤ 3.4 mEq/L) ([1]; both, human, 20 week): 1 (2%) Number (%)
- Number with Hypokalemia (%) (Potassium ≤ 3.4 mEq/L) ([1]; both, human, 24 week): 4 (8%) Number (%)
- Hypokalemia observed ([1]; both, human, 24 weeks): 44%
- No Hypokalemia ([1]; both, human, 24 weeks): 29 (64.4) n (%)
- Non-Severe Hypokalemia ([1]; both, human, 24 weeks): 7 (15.6) n (%)
- Severe/Recurrent Hypokalemia ([1]; both, human, 24 weeks): 9 (20.0) n (%)
- developed hypokalemia after dosing ([1]; both, human, 24 weeks): 42.9%
- Number with Hypokalemia (%) (Potassium ≤ 3.4 mEq/L) ([1]; both, human, 30 week): 3 (6%) Number (%)
- Number with Severe Hypokalemia (%) (Potassium ≤ 2.5 mEq/L) ([1]; both, human, 30 week): 1 (2%) Number (%)
- Number with Hypokalemia (%) (Potassium ≤ 3.4 mEq/L) ([1]; both, human, 1 day): 2 (4%) Number (%)
- Number with Hypokalemia (%) (Potassium ≤ 3.4 mEq/L) ([1]; both, human, 7 day): 2 (4%) Number (%)
- Number of Subjects Hypokalemic <=3.5 mmol/L ([1]; both, human, 14 day): 8
- Number of Subjects Non-Hypokalemic >3.5 mmol/L ([1]; both, human, 14 day): 38
- Number with Hypokalemia (%) (Potassium ≤ 3.4 mEq/L) ([1]; both, human, 14 day): 8 (16%) Number (%)
- Number with Severe Hypokalemia (%) (Potassium ≤ 2.5 mEq/L) ([1]; both, human, 14 day): 1 (2%) Number (%)
- subjects with a Potassium value ≤3.5 mmol/L as early as day 14 ([1]; both, human, 14 days): 8
- subjects with a Potassium value ≤3.5 mmol/L as early as day 14, all post-baseline values ([1]; both, human, 14 days): 11
- Number with Hypokalemia (%) (Potassium ≤ 3.4 mEq/L) ([1]; both, human, 28 day): 10 (20%) Number (%)
- Number of Subjects Hypokalemic <=3.5 mmol/L ([1]; both, human, 42 day): 6
- Number of Subjects Non-Hypokalemic >3.5 mmol/L ([1]; both, human, 42 day): 35
- Number of Subjects Hypokalemic <=3.5 mmol/L ([1]; both, human, 70 day): 6
- Number of Subjects Non-Hypokalemic >3.5 mmol/L ([1]; both, human, 70 day): 30
- Number of Subjects Hypokalemic <=3.5 mmol/L ([1]; both, human, 112 day): 9
- Number of Subjects Non-Hypokalemic >3.5 mmol/L ([1]; both, human, 112 day): 23
- Number of Subjects Hypokalemic <=3.5 mmol/L ([1]; both, human, 168 day): 5
- Number of Subjects Non-Hypokalemic >3.5 mmol/L ([1]; both, human, 168 day): 37
- Number of Subjects Hypokalemic <=3.5 mmol/L ([1]; both, human, 210 day): 3
- Number of Subjects Non-Hypokalemic >3.5 mmol/L ([1]; both, human, 210 day): 37
- patients with at least one potassium value of 2.5 mmol/L or lower [1]: two
- severity of hypokalemia [1]: mild to moderate
- subjects with a day 7 Potassium value ≤3.5 mmol/L [1]: three
SMILES: CC#C[C@]1(O)CC[C@H]2[C@@H]3CCC4=CC(=O)CCC4=C3[C@@H](c3ccc(N(C)C)cc3)C[C@@]21C [mifepristone, 11β-(4-dimethylaminophenyl)-17β-hydroxy-17α-(1-propynyl)-estra-4,9-dien-3-one]
- subjects with reported treatment emergent adverse events (TEAEs) of decreased blood potassium [1]: Seventeen
- serum cortisol increase during mifepristone treatment ([2]; 43 subjects with Cushing's disease): increased to a smaller degree
- Total Serum Cortisol Visit Values ([2]; Day 14, Hypokalemic): 1261 ± 786 (8) nmol/L
- Total Serum Cortisol Visit Values ([2]; Day 14, Non-Hypokalemic): 782 ± 246 (38) nmol/L
- Total Serum Cortisol Visit Values ([2]; Day 42, Hypokalemic): 1274 ± 401 (6) nmol/L
- Total Serum Cortisol Visit Values ([2]; Day 42, Non-Hypokalemic): 828 ± 249 (35) nmol/L
- Total Serum Cortisol Visit Values ([2]; Day 70, Hypokalemic): 1390 ± 283 (6) nmol/L
- Total Serum Cortisol Visit Values ([2]; Day 70, Non-Hypokalemic): 1025 ± 546 (30) nmol/L
- Total Serum Cortisol Visit Values ([2]; Day 112, Hypokalemic): 1318 ± 677 (9) nmol/L
- Total Serum Cortisol Visit Values ([2]; Day 112, Non-Hypokalemic): 813 ± 318 (23) nmol/L
- Total Serum Cortisol Visit Values ([2]; Day 168, Hypokalemic): 1298 ± 597 (5) nmol/L
- Total Serum Cortisol Visit Values ([2]; Day 168, Non-Hypokalemic): 948 ± 537 (37) nmol/L
- Total Serum Cortisol Visit Values ([2]; Day 210 (6 week follow-up), Hypokalemic): 1228 ± 561 (3) nmol/L
- Total Serum Cortisol Visit Values ([2]; Day 210 (6 week follow-up), Non-Hypokalemic): 696 ± 477 (37) nmol/L
- frequently reported adverse events ([3]; previous clinical studies, healthy volunteers): headache, gastrointestinal symptoms including diarrhea, nausea and vomiting, and rash
- Hypokalemia and rash versus control groups ([3]; subjects receiving mifepristone vs control groups): more common
- patients with serum potassium levels less than 3.5 mEq/L ([4]; of 43 Cushing's syndrome patients (ACTH-dependent and ACTH-independent)): 22 patients
- patients with serum potassium levels less than 2.5 mEq/L (severe hypokalemia) ([4]; of the 22 hypokalemic of 43 patients): 3 patients
